Experimental data published in a melting point compilation (Tetko et al.).

Compared with `COc1cc(OC)c([N+](=O)[O-])c(OC)c1`, `COc1ccc(C#N)c(Cl)c1OC` is lower in melting point: 152 °C for the first, 102 °C for the second.

First: Clc1cccc(CBr)c1Cl
Second: Cc1ccc(Cl)c(N)c1Cl
The melting point of the first is lower: 29 to 32 °C for the first, 37 to 40 °C for the second.

Going from `Brc1ccc(Oc2ccccc2Br)cc1` to `CN(O)C(=O)Cc1ccc(OCc2ccccc2)cc1`, the melting point rises from under 20 °C to 96 °C.

First: COc1cccc(C=Cc2cc(C=Cc3cccc(OC)c3O)c([N+](=O)[O-])cc2[N+](=O)[O-])c1O
Second: CC(=O)c1ccc(OCc2ccc(F)cc2)c([N+](=O)[O-])c1
The melting point of the first is higher: 254 °C for the first, 105 to 107 °C for the second.

Going from `C#CC1(O)CCC2C3CCC4=CC(=O)CCC4=C3C=CC21C` (stereo not drawn) to `CCCCCC(=O)OC1(C(C)=O)CCC2C3CCC4=CC(=O)CCC4C3CCC21C` (stereo not drawn), the melting point falls from 169 °C to 124 °C.

First: CCOC(C)=C(C#N)C#N
Second: CCOC(=O)C(C#N)=C(N)c1cc2cccc(OC)c2oc1=O
The melting point of the first is lower: 89 to 93 °C for the first, 251 to 252 °C for the second.

Going from `ClC1(Cl)CCCCC1` to `C1CCNC1`, the melting point falls from -47 °C to -57.8 °C.

First: O=C(C=Cc1ccc(F)cc1)c1ccccc1
Second: CC(=O)Nc1cccc(C=CC(=O)c2ccccc2)c1
The melting point of the first is lower: 84 to 88 °C for the first, 104 °C for the second.

First: COc1cccc(OC)c1SC
Second: CNc1ccccc1OC
The melting point of the first is higher: 79 to 80 °C for the first, 30 to 33 °C for the second.

Going from `O=c1ccn(C2CC(O)C(CO)O2)c(=O)[nH]1` (stereo not drawn) to `CC(=O)C(Cc1ccccc1)C(=O)OC1CC(C)CCC1C(C)C` (stereo not drawn), the melting point falls from 166 °C to 68 °C.

Going from `CCOC(CC(OCC)OCC)OCC` to `CCCCC(CC)COC(=O)CCCCCCCCC(=O)OCC(CC)CCCC` (stereo not drawn), the melting point rises from -90 °C to -48 °C.

Compared with `Cc1ccc([N+](=O)[O-])cc1N=C=O`, `Cc1cc(Br)ccc1N=C=O` is lower in melting point: 51 °C for the first, 49 °C for the second.

Compared with `Cc1ccc(Cc2c(N)nn3c(C)cc(C)nc23)cc1`, `Cc1n[nH]c(C)c1Cc1ccccc1` is lower in melting point: 178 to 179 °C for the first, 119 °C for the second.

Going from `Clc1cc2oc3ccc(Cl)c(Cl)c3c2cc1Cl` to `Clc1cc(Cl)c2c(c1)oc1c(Cl)cc(Cl)cc12`, the melting point falls from 210 °C to 177 °C.

Compared with `CC1CCC(C)(CNc2ccccc2)C1(C)C` (stereo not drawn), `CS(=O)(=O)Nc1ccccc1` is higher in melting point: 59 °C for the first, 93 to 97 °C for the second.

Going from `O=C(O)COc1ccc(I)cc1` to `COc1ccc(C=C(C#N)C(N)=O)cc1`, the melting point rises from 157 °C to 321 °C.

Going from `O=S(=O)(O)CCN1CCN(CCS(=O)(=O)O)CC1` to `O=P(N1CCOCC1)(N1CCOCC1)N1CCOCC1`, the melting point falls from 300 °C to 190 °C.

First: COc1ccc(-c2cc3nc(-c4cccs4)cc(C(F)(F)F)n3n2)cc1
Second: CCOc1ccc(-c2nnc3n2NC(c2ccc([N+](=O)[O-])cc2)S3)cc1 (stereo not drawn)
The melting point of the first is higher: 201 °C for the first, 98 °C for the second.

Going from `COC(=O)c1ccc([N+](=O)[O-])c(O)c1` to `COC(=O)c1cccc([N+](=O)[O-])c1C(=O)OC`, the melting point falls from 91 °C to 69 °C.

First: N#CC(=Cc1cccc(O)c1)C(=O)O
Second: O=Cc1cccc(Br)c1
The melting point of the first is higher: 230 to 233 °C for the first, 20 °C for the second.

First: NNC(=O)C(=O)NN
Second: CC(=O)CC(C)=O
The melting point of the first is higher: 239 to 243 °C for the first, -23 °C for the second.

Going from `CCOC(=O)c1ccccc1` to `NNC(=O)c1ccccc1`, the melting point rises from -34 °C to 115 °C.

Compared with `Oc1ccc2c(c1)Cc1ccccc1-2`, `O=C(O)c1cccc(-c2ccccc2)c1O` is higher in melting point: 168 °C for the first, 186 °C for the second.

First: CC(=O)Oc1c(C)cc(OCC(O)CNC(C)C)c(C)c1C (stereo not drawn)
Second: COc1ccc(CC(=O)O)cc1C
The melting point of the first is higher: 106 °C for the first, 93 to 95 °C for the second.

Compared with `CC1(C)C(O)C(C)(C)C1O` (stereo not drawn), `CC12CCCCC1(C)C1CCC3(C)C(O)CCC3(C)C1CC2` (stereo not drawn) is higher in melting point: 126 to 134 °C for the first, 167 °C for the second.

Going from `O=C(O)C(F)(F)C(F)(F)C(F)(F)C(F)(F)C(F)(F)C(F)(F)C(F)(F)C(F)F` to `OCc1cc(C(F)(F)F)cc(C(F)(F)F)c1`, the melting point falls from 67 °C to 54 °C.

Going from `O=Cc1cc(I)cc(I)c1O` to `Nc1c(Cl)cc(Cl)cc1I`, the melting point falls from 108 °C to 80 °C.

First: CCOC(=O)c1nn(-c2ccc(Cl)cc2Cl)c(-c2ccc([N+](=O)[O-])cc2)c1S(=O)(=O)c1ccccc1
Second: COc1ccc(/C(C(=O)c2ccccc2)=C2/C(=O)N(C(C)=O)c3ccccc32)cc1
The melting point of the first is lower: 118 °C for the first, 180 °C for the second.

Compared with `NC(=O)c1cc(F)cc(F)c1`, `CC(=O)c1cc(F)cc(F)c1` is lower in melting point: 156 °C for the first, 39 °C for the second.

Compared with `CCN(CC)CCOCc1cc(Br)cc(Br)c1OC`, `COc1c(F)cc(N)cc1Br` is higher in melting point: under 25 °C for the first, 72 °C for the second.

Compared with `C=CN(C)C(C)=O`, `CCC(=O)Cl` is lower in melting point: -36 °C for the first, -94 °C for the second.

First: O=C(O)c1nccc2ccccc12
Second: c1ccc2nnccc2c1
The melting point of the first is higher: 160 to 165 °C for the first, 38 °C for the second.

Compared with `NN1C(=O)c2cccc3cccc(c23)C1=O`, `Cc1ccc(-n2ncc(Cl)c(Cl)c2=O)cc1` is lower in melting point: 265 to 266 °C for the first, 144 to 146 °C for the second.

`COC1C(O)C(C)OC(OC2CCC3(C)C(CCC4C3CCC3(C)C(C5=CC(=O)OC5)CCC43O)C2)C1O` (stereo not drawn) and `CC1OC(OC2C=C3CCC4C(CCC5(C)C(c6ccc(=O)oc6)CCC45O)C3(C)CC2)C(O)C(O)C1O` (stereo not drawn) are the same in melting point: 221 °C for the first, 221 °C for the second.

Going from `OCC(CO)(CO)COCC(CO)(CO)COCC(CO)(CO)CO` to `C=CCOCC(CC)(CO)CO`, the melting point falls from 249 °C to -10 °C.

First: COC(=O)c1cc(C)nn1C(=O)OC
Second: COC(=O)c1sc2ccccc2c1N
The melting point of the first is higher: 111 to 112 °C for the first, 107 to 108 °C for the second.

Compared with `O=C(CBr)c1cc(-c2ccc(Cl)cc2)no1`, `CC(C)OC(=O)Cc1csc(-c2ccc(Cl)cc2)n1` is lower in melting point: 157 to 158 °C for the first, 82 to 84 °C for the second.

First: CCCCCCCCCCCCCCCCCCOCCOCCOCCOCCOCCOCCOCCOCCOCCOCCOCCOCCOCCOCCOCCOCCOCCOCCOCCOCCO
Second: CCCCCCCCCCCCCCC(C)C
The melting point of the first is higher: 44 to 46 °C for the first, 4 °C for the second.

Going from `CC1=CC(=O)OC(C)(C)O1` to `CC1=C(O)C(=O)C(C)O1` (stereo not drawn), the melting point rises from 7 °C to 80.5 °C.

Compared with `Cc1nc(-c2ccccc2)sc1C(=O)CBr`, `CC(c1cc2ccccc2s1)N(O)C(N)=O` (stereo not drawn) is higher in melting point: 117 to 118 °C for the first, 157 °C for the second.

First: O=C(C1=NOC2C(=O)N(c3ccccc3)C(=O)C12)c1ccccc1 (stereo not drawn)
Second: O=C(C1=NOC2C(=O)N(c3ccc(Cl)cc3)C(=O)C12)c1ccco1 (stereo not drawn)
The melting point of the first is lower: 161 °C for the first, 171 °C for the second.

First: CCCCCCc1ccccc1
Second: FC(F)(F)Oc1ccccc1
The melting point of the first is lower: -61 °C for the first, -50 °C for the second.

First: Cc1cc(O)c(Cc2c(O)cc(C)oc2=O)c(=O)o1
Second: O=C(O)c1cc2cc(Cl)cc(Cl)c2oc1=O
The melting point of the first is higher: 248 to 250 °C for the first, 198 to 200 °C for the second.

Compared with `NC(=O)c1c(N)cccc1F`, `N#Cc1ccc(N)c(F)c1` is lower in melting point: 115 to 118 °C for the first, 89 °C for the second.

First: C(=N\CC/N=C/c1ccc2c(c1)OCO2)/c1ccc2c(c1)OCO2
Second: Clc1ccc(C=Nc2n[nH]c(N=Cc3ccc(Cl)cc3)c2Cc2ccc(Cl)cc2)cc1
The melting point of the first is lower: 178 °C for the first, 228 to 230 °C for the second.

First: CSc1sc(C(=O)O)c(-c2ccc(Cl)cc2)c1C#N
Second: CC(C)(O)CC(C)(O)c1ccc(Cl)cc1 (stereo not drawn)
The melting point of the first is higher: 241 to 243 °C for the first, 76.5 °C for the second.

First: CN(C)C(=O)C(c1ccccc1)C(O)c1ccccc1 (stereo not drawn)
Second: c1ccc(N(c2ccccc2)c2ccccc2)cc1
The melting point of the first is higher: 176 °C for the first, 127 °C for the second.

First: NCc1cc(C(F)(F)F)ccc1N1CCOCC1
Second: O=Cc1ccc(N2CCCCC2)cc1
The melting point of the first is lower: 31 to 34 °C for the first, 62 to 63 °C for the second.

Compared with `N#Cc1ccoc1`, `N#Cc1cc(Cl)nc(Cl)c1` is higher in melting point: 29 to 31 °C for the first, 96 to 97 °C for the second.

First: O=C(NC(NC(=O)c1ccccc1)c1ccccc1OCc1ccccc1Cl)c1ccccc1
Second: CC1(C)C2CCC1(C)C(/N=C(\C(=O)c1ccccc1)c1ccccc1)C2/N=C(\C(=O)c1ccccc1)c1ccccc1 (stereo not drawn)
The melting point of the first is higher: 241 to 243 °C for the first, 190 °C for the second.

Compared with `COc1ccc2c(c1)c(CC(=O)O)c(C)n2C(=O)C=Cc1ccccc1`, `COc1ccc2c(C(=S)N(C)CC(=O)O)cccc2c1C(F)(F)F` is lower in melting point: 170 °C for the first, 164 °C for the second.

Going from `CCCN(CCC)c1c([N+](=O)[O-])cc(S(C)(=O)=O)cc1[N+](=O)[O-]` to `CNC(=C[N+](=O)[O-])NCCSCc1csc(CN(C)C)n1`, the melting point rises from 150 °C to 203 °C.

Compared with `C#Cc1cccnc1`, `O=Cc1cc(C#Cc2ccccc2)cs1` is higher in melting point: 40 °C for the first, 115 to 118 °C for the second.

First: CC(C)(C)NCC(O)c1ccc(O)c(CO)c1 (stereo not drawn)
Second: OCc1cc(Cl)cc(Cl)c1O
The melting point of the first is higher: 154 °C for the first, 82 to 83 °C for the second.

First: CC1CNC(C(O)(C2=NCC(C)N2)C2=NCC(C)N2)=N1 (stereo not drawn)
Second: CSc1scc2c1C(=NO)CC(C)(C)C2
The melting point of the first is higher: 178 to 180 °C for the first, 151 to 154 °C for the second.

Compared with `CCCC(Cn1cncn1)c1ccc(Cl)cc1Cl` (stereo not drawn), `COc1ccc(CC#N)cc1F` is lower in melting point: 60.3 °C for the first, 48 °C for the second.

First: Cc1nnsc1-c1onc(C)c1C(=O)Cl
Second: Cc1csc2c(Cl)ncnc12
The melting point of the first is lower: 66 to 70 °C for the first, 124 to 125 °C for the second.

First: Nc1ccc(C2SCCS2)cc1
Second: COc1nsnc1NS(=O)(=O)c1ccc(N)cc1
The melting point of the first is lower: 57 to 59 °C for the first, 150 °C for the second.

Going from `CCC1COC(=O)O1` (stereo not drawn) to `OC1C2COC(O2)C(O)C1O` (stereo not drawn), the melting point rises from -45 °C to 183 °C.

First: NC(=O)NN=CC[N+](=O)[O-]
Second: CC(=O)Nc1ccc2c(c1)CCCC2=O
The melting point of the first is higher: 360 °C for the first, 127 to 129 °C for the second.

First: O=C(OCC1(COC(=O)c2cccnc2)CCCC(COC(=O)c2cccnc2)(COC(=O)c2cccnc2)C1O)c1cccnc1
Second: N#Cc1ccccc1OCC(O)CNCCNC(=O)Cc1ccc(O)cc1 (stereo not drawn)
The melting point of the first is higher: 178 °C for the first, 119 °C for the second.

First: COc1ccc(C2C3=C(CCCC3)OC3=C2CCCC3)cc1
Second: CC1(c2ccccc2)CC(C(=NNC(O)=S)c2cc3ccccc3o2)C1 (stereo not drawn)
The melting point of the first is lower: 104 °C for the first, 191 to 192 °C for the second.

First: N#C/C(=N\Nc1ccc(O)cc1)c1nc2ccccc2[nH]1
Second: O=C1OC2(c3ccccc31)c1ccc(O)c(Br)c1Oc1c2ccc(O)c1Br
The melting point of the first is lower: 255 °C for the first, 285 °C for the second.

Compared with `Nc1ccccc1NC1CCN(Cc2ccccc2)CC1`, `NC(=S)c1csc2ccccc12` is higher in melting point: 111 to 112 °C for the first, 121 to 124 °C for the second.
